18 compounds from patent US10093683B2, “Factor XIa inhibitors” (Merck Sharp & Dohme Corp., priority 2014, dated 2018) can be followed below.

One test concerns the target Human plasma kallikrein (Homo sapiens (Human), UniProt P03952). Kind of test: Kallikrein Assay. Type of test: biochemical. The following applies: purified Human plasma kallikrein 0.5 nM, Acetyl-K-P-R-AFC, pH 7.4; Ki from IC50 by Cheng Prusoff. As to the method: The effectiveness of a compound of the present invention as an inhibitor of Kallikrein can be determined using a relevant purified serine protease, and an appropriate synthetic substrate. The rate of hydrolysis of the chromogenic or fluorogenic substrate by the relevant serine protease was measured both in the absence and presence of compounds of the present invention. Assays were conducted at room temperature or at 37° C. […] A decrease in the rate of fluorescence change in the presence of inhibitor is indicative of enzyme inhibition. Such methods are known to one skilled in the art. The results of this assay are expressed as the inhibitory constant, Ki.
Kallikrein determinations were made in 50 mM HEPES buffer at pH 7.4 containing 150 mM NaCl, 5 mM CaCl2, and 0.1% PEG 8000 (polyethylene glycol; Fisher Scientific). Determinations were made using purified Human plasma kallikrein at a final concentration of 0.5 nM (Enzyme Research Laboratories) and the synthetic substrate, Acetyl-K-P-R-AFC (Sigma #C6608) at a concentration of […].
Times required to achieve equilibration between enzyme and inhibitor were determined in control experiments. The reactions were performed under linear progress curve conditions and fluorescence increase measured at 405 Ex/510 Em nm. […] IC50 was determined by inflection point from a four parameter logistic curve fit. Ki was calculated using the Cheng Prusoff equation, Ki=IC50/(1+([S]/Km)).

Another test has as its target human Factor XIa (Homo sapiens (Human), UniProt P03951). Kind of test: Factor XIa Assay. Type of test: biochemical. Conditions: purified human Factor XIa 40 pM, Z-Gly-Pro-Arg-AFC 100 μM, pH 7.4; read-out: FXIa Ki. Summed up: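 Purified human FXIa (40 pM final) hydrolysing fluorogenic Z-Gly-Pro-Arg-AFC (100 μM) in 50 mM HEPES pH 7.4, 150 mM NaCl, 5 mM CaCl2, 0.1% PEG 8000, at room temperature or 37° C. Initial velocities measured after enzyme–inhibitor equilibration; Ki from Vo/Vi versus [I], assuming competitive inhibition.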

Structures are written as SMILES.

Human plasma kallikrein, sequence (P03952 391-638): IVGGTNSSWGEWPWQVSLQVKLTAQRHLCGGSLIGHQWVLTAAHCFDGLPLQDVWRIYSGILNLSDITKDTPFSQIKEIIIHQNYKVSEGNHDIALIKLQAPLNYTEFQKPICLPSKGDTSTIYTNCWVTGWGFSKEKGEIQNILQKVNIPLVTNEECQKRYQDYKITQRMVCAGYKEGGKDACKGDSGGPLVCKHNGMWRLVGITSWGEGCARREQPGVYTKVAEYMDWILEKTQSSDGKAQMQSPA
Human plasma kallikrein, sequence (P03952 20-390 partner): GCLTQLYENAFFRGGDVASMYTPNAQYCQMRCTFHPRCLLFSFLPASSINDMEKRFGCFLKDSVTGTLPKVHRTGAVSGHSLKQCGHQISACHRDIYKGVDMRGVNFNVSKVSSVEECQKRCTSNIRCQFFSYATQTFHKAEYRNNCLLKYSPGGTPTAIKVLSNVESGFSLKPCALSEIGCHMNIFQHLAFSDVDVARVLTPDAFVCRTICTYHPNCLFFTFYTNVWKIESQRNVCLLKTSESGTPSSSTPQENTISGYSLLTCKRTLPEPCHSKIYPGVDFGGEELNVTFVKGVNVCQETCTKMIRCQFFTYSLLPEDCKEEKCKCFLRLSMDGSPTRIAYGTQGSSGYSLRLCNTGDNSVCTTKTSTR
human Factor XIa, sequence (P03951 388-625): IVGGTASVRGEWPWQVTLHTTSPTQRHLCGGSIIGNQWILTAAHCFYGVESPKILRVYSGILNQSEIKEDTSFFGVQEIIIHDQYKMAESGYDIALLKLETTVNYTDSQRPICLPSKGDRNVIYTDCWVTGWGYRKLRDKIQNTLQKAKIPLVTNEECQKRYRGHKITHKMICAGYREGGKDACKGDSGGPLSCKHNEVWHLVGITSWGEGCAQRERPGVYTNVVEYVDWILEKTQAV
human Factor XIa, sequence (P03951 19-387 partner): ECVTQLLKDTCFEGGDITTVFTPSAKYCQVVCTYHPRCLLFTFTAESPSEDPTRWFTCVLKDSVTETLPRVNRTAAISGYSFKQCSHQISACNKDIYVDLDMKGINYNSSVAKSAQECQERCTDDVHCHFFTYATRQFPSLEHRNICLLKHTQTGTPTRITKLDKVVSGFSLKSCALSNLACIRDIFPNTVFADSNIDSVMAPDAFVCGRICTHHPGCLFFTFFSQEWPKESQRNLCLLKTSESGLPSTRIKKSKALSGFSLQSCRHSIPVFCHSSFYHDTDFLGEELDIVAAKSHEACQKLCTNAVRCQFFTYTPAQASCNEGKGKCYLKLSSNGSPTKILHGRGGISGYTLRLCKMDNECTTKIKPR

The term Ki denotes the equilibrium dissociation constant of an inhibitor or competing ligand from its target. With `COC(=O)Nc1ccc(C(=O)N[C@@H](Cc2ccc(C(N)=O)cc2)C(=O)N2CCC[C@@]3(C2)OC(=O)Nc2ccc(Cl)cc23)cc1` [Example 47, methyl (4-(((S)-3-(4-carbamoylphenyl)-1-((R)-6-chloro-2-oxo-1,2-dihydrospiro[benzo[d][1,3]oxazine-4,3′-piperidin]-1′-yl)-1-oxopropan-2-yl)carbamoyl)phenyl)carbamate], the Ki at Human plasma kallikrein was below 1.3 nM; at human Factor XIa, 0.55 nM.
As for `COC(=O)Nc1ccc(C(=O)N[C@@H](Cc2ccc(NC(C)=O)cc2)C(=O)N2CCC[C@@]3(C2)OC(=O)Nc2ccc(Cl)cc23)cc1` [Example 48, methyl (4-(((S)-3-(4-acetamidophenyl)-1-((R)-6-chloro-2-oxo-1,2-dihydrospiro[benzo[d][1,3]oxazine-4,3′-piperidin]-1′-yl)-1-oxopropan-2-yl)carbamoyl)phenyl)carbamate], the Ki at Human plasma kallikrein came out at 1.27 nM; on human Factor XIa, 2.01 nM.
Taken in the same sequence, the figures for `COC(=O)Nc1ccc(C(=O)N[C@@H](Cc2ccc3ccccc3c2)C(=O)N2CCC3(C2)OC(=O)Nc2ccc(Cl)cc23)cc1` (stereo partly drawn) [Example 50, methyl (4-(((2S)-1-(6-chloro-2-oxo-1,2-dihydrospiro[benzo[d][1,3]oxazine-4,3′-pyrrolidin]-1′-yl)-3-(naphthalen-2-yl)-1-oxopropan-2-yl)carbamoyl)phenyl)carbamate] were 227 nM and 33.7 nM.
As for `COC(=O)Nc1ccc(C(=O)N[C@@H](CCc2ccccc2)C(=O)N2CCC3(C2)OC(=O)Nc2ccc(Cl)cc23)cc1` (stereo partly drawn) [Example 52, methyl (4-(((2S)-1-(6-chloro-2-oxo-1,2-dihydrospiro[benzo[d][1,3]oxazine-4,3′-pyrrolidin]-1′-yl)-1-oxo-4-phenylbutan-2-yl)carbamoyl)phenyl)carbamate], the values for the Ki at Human plasma kallikrein and on human Factor XIa were 92.8 nM and 17.6 nM, respectively.
On to `COC(=O)Nc1ccc(C(=O)N[C@@H](Cc2cncn2C)C(=O)N2CCC[C@@]3(C2)OC(=O)Nc2ccc(Cl)cc23)cc1` [Example 53, methyl (4-(((S)-1-((R)-6-chloro-2-oxo-1,2-dihydrospiro[benzo[d][1,3]oxazine-4,3′-piperidin]-1′-yl)-3-(1-methyl-1H-imidazol-5-yl)-1-oxopropan-2-yl)carbamoyl)phenyl)carbamate], for which the inhibitory constant (Ki) at Human plasma kallikrein was 2.21 nM; on human Factor XIa it was 15.5 nM.
As for `COC(=O)Nc1ccc(C(=O)N[C@@H](CCSC)C(=O)N2CCC[C@@]3(C2)OC(=O)Nc2ccc(Cl)cc23)cc1` [Example 57, methyl (4-(((S)-1-((R)-6-chloro-2-oxo-1,2-dihydrospiro[benzo[d][1,3]oxazine-4,3′-piperidin]-1′-yl)-4-(methylthio)-1-oxobutan-2-yl)carbamoyl)phenyl)carbamate], the Ki is 1.43 nM at Human plasma kallikrein and 4.9 nM on human Factor XIa.
With `COC(=O)Nc1ccc(C(=O)N[C@@H](Cc2cscn2)C(=O)N2CCC[C@@]3(C2)OC(=O)Nc2ccc(Cl)cc23)cc1` [Example 58, methyl (4-(((S)-1-((R)-6-chloro-2-oxo-1,2-dihydrospiro[benzo[d][1,3]oxazine-4,3′-piperidin]-1′-yl)-1-oxo-3-(thiazol-4-yl)propan-2-yl)carbamoyl)phenyl)carbamate], the Ki is below 1.36 nM at Human plasma kallikrein and 4.04 nM on human Factor XIa.
`COC(=O)Nc1ccc(C(=O)N[C@@H](CC(C)C)C(=O)N2CCC[C@@]3(C2)OC(=O)Nc2ccc(Cl)cc23)cc1` [Example 60, methyl (4-(((S)-1-((R)-6-chloro-2-oxo-1,2-dihydrospiro[benzo[d][1,3]oxazine-4,3′-piperidin]-1′-yl)-4-methyl-1-oxopentan-2-yl)carbamoyl)phenyl)carbamate]: the Ki at Human plasma kallikrein was 3.31 nM; on human Factor XIa, 48.9 nM.
As to `COC(=O)Nc1ccc(C(=O)N[C@@H](CC2CC2)C(=O)N2CC[C@@]3(C2)OC(=O)Nc2ccc(Cl)c(F)c23)cc1` [Example 61, methyl (4-(((S)-1-((R)-6-chloro-5-fluoro-2-oxo-1,2-dihydrospiro[benzo[d][1,3]oxazine-4,3′-pyrrolidin]-1′-yl)-3-cyclopropyl-1-oxopropan-2-yl)carbamoyl)phenyl)carbamate], the Ki on Human plasma kallikrein is 11.2 nM; on human Factor XIa, 12.7 nM.
For `COC(=O)Nc1ccc(C(=O)N[C@@H](Cc2ccncc2)C(=O)N2CCC[C@@]3(C2)OC(=O)Nc2ccc(Cl)c(F)c23)cc1` [Example 62, methyl (4-(((S)-1-((R)-6-chloro-5-fluoro-2-oxo-1,2-dihydrospiro[benzo[d][1,3]oxazine-4,3′-piperidin]-1′-yl)-1-oxo-3-(pyridin-4-yl)propan-2-yl)carbamoyl)phenyl)carbamate], the Ki at Human plasma kallikrein is 0.54 nM; on human Factor XIa it was 0.88 nM.
As for `COC(=O)Nc1ccc(C(=O)N[C@@H](CC2CC2)C(=O)N2CCC[C@@]3(C2)OC(=O)Nc2ccc(Cl)c(F)c23)cc1` [Example 63, methyl (4-(((S)-1-((R)-6-chloro-5-fluoro-2-oxo-1,2-dihydrospiro[benzo[d][1,3]oxazine-4,3′-piperidin]-1′-yl)-3-cyclopropyl-1-oxopropan-2-yl)carbamoyl)phenyl)carbamate], the Ki at Human plasma kallikrein was determined as 1.73 nM; at human Factor XIa, 5.64 nM.
Turning to `COC(=O)Nc1ccc(C(=O)N[C@@H](CC2CCOCC2)C(=O)N2CCC[C@@]3(C2)OC(=O)Nc2ccc(Cl)cc23)cc1` [Example 65, methyl (4-(((S)-1-((R)-6-chloro-2-oxo-1,2-dihydrospiro[benzo[d][1,3]oxazine-4,3′-piperidin]-1′-yl)-1-oxo-3-(tetrahydro-2H-pyran-4-yl)propan-2-yl)carbamoyl)phenyl)carbamate], the Ki at Human plasma kallikrein turned out to be 5.4 nM; at human Factor XIa, 41.5 nM.
Taken in the same sequence, the figures for `COC(=O)Nc1ccc(C(=O)N[C@@H](CC2CC2)C(=O)N2CCC[C@@]3(C2)OC(=O)Nc2ccc(C)cc23)cc1` [Example 66, methyl (4-(((S)-3-cyclopropyl-1-((R)-6-methyl-2-oxo-1,2-dihydrospiro[benzo[d][1,3]oxazine-4,3′-piperidin]-1′-yl)-1-oxopropan-2-yl)carbamoyl)phenyl)carbamate] were 3.8 nM and 30 nM.
For `COC(=O)Nc1ccc(C(=O)N[C@@H](CC2CCCCC2)C(=O)N2CCC[C@@]3(C2)OC(=O)Nc2ccc(Cl)cc23)cc1` [Example 72, methyl (4-(((S)-1-((R)-6-chloro-2-oxo-1,2-dihydrospiro[benzo[d][1,3]oxazine-4,3′-piperidin]-1′-yl)-3-cyclohexyl-1-oxopropan-2-yl)carbamoyl)phenyl)carbamate], the Ki at Human plasma kallikrein was determined as 17.7 nM; on human Factor XIa, 3.58 nM.
Regarding `COC(=O)Nc1ccc(C(=O)N[C@@H](Cc2ccc(F)cn2)C(=O)N2CCC[C@@]3(C2)OC(=O)Nc2ccc(Cl)c(F)c23)cc1` [Example 74, methyl (4-(((S)-1-((R)-6-chloro-5-fluoro-2-oxo-1,2-dihydrospiro[benzo[d][1,3]oxazine-4,3′-piperidin]-1′-yl)-3-(5-fluoropyridin-2-yl)-1-oxopropan-2-yl)carbamoyl)phenyl)carbamate], the results for the Ki at Human plasma kallikrein and at human Factor XIa were 2.53 nM and 2.82 nM, respectively.
In the case of `COC(=O)Nc1ccc(C(=O)N[C@@H](Cc2ccc(OC)cn2)C(=O)N2CCC[C@@]3(C2)OC(=O)Nc2ccc(Cl)c(F)c23)cc1` [Example 75, methyl (4-(((S)-1-((R)-6-chloro-5-fluoro-2-oxo-1,2-dihydrospiro[benzo[d][1,3]oxazine-4,3′-piperidin]-1′-yl)-3-(5-methoxypyridin-2-yl)-1-oxopropan-2-yl)carbamoyl)phenyl)carbamate], the Ki worked out at 1.56 nM on Human plasma kallikrein and 1.9 nM at human Factor XIa.
As to `COC(=O)Nc1ccc(C(=O)N[C@@H](Cc2ccncc2F)C(=O)N2CCC[C@@]3(C2)OC(=O)Nc2ccc(Cl)c(F)c23)cc1` [Example 76, methyl (4-(((S)-1-((R)-6-chloro-5-fluoro-2-oxo-1,2-dihydrospiro[benzo[d][1,3]oxazine-4,3′-piperidin]-1′-yl)-3-(3-fluoropyridin-4-yl)-1-oxopropan-2-yl)carbamoyl)phenyl)carbamate], the Ki on Human plasma kallikrein is 1.2 nM; at human Factor XIa, 1.39 nM.
Turning to `COC(=O)Nc1ccc(C(=O)N[C@@H](Cc2ccc(-c3cc[nH]n3)cc2)C(=O)N2CC[C@@]3(C2)OC(=O)Nc2ccc(Cl)cc23)cc1` [Example 77, methyl (4-(((S)-3-(4-(1H-pyrazol-3-yl)phenyl)-1-((R)-6-chloro-2-oxo-1,2-dihydrospiro[benzo[d][1,3]oxazine-4,3′-pyrrolidin]-1′-yl)-1-oxopropan-2-yl)carbamoyl)phenyl)carbamate], the Ki on Human plasma kallikrein was found to be 32.6 nM; on human Factor XIa it was 3.48 nM.
